Assay results from US9518046B2 (Calitor Sciences, LLC, priority 2015, dated 2016).

Tests used:
[1] = Pharmacokinetics after intravenous and oral administration in rats; assay type: in vivo; conditions: for CL/F / bioavailability: Rats; for CL/F: iv dosing, dose 1 mg/kg (0.5 for Ex. 1, 10, 11, 35; 0.48 for Ex. 24); for AUC(0-t) / half-life / Vd / bioavailability: rat, plasma; for AUC(0-t) / half-life / Vd: iv, 1 mg/kg; for Vd: read-out: Vss; for bioavailability: oral (p.o.) generally 5 or 10 mg/kg versus iv dosing
In short: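 Dosing used solution, suspension or capsule formulations: 1 or 2 mg/kg IV in all species; PO 5 or 10 mg/kg in mice and rats, 10 mg/kg in dogs and monkeys. Plasma sampled from 0.083 or 0.25 h up to 24 h post-dose; concentrations determined by LC/MS/MS in MRM mode.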

[2] = Pharmacokinetics after intravenous and oral administration in dogs; assay type: in vivo; conditions: Dog; iv dosing 1 mg/kg
Method: (§1) The LC/MS/MS system used in the analysis consists of an Agilent 1200 Series vacuum degasser, binary pump, well-plate autosampler, thermostatted column compartment, the Agilent G6430 Triple Quadrupole Mass Spectrometer with an electrosprayionization (ESI) source. Quantitative analysis was carried out using MRM mode. The parameters for MRM transitions are in the Table A.
(§2) An Agilent XDB-C18, 2.1×30 mm, 3.5 M column was used for the analysis. 5 L of the samples were injected. Analysis condition: The mobile phase was 0.1% formic acid in water (A) and 0.1% formic acid in methanol (B). The flow rate was 0.4 mL/min. And the gradient of Mobile phase was in the Table B.
(§3) Alternatively, an Agilent 6330 series LC/MS/MS spectrometer equipped with G1312A binary pumps, a G1367A autosampler and a G1314C UV detector were used in the analysis. An ESI source was used on the LC/MS/MS spectrometer. The analysis was done in positive ion mode as appropriate and the MRM transition for each analyte was optimized using standard solution. A Capcell MP-C18 100×4.6 mm I.D., […] column (Phenomenex, Torrance, Calif., USA) was used during the analysis. The mobile phase was 5 mM ammonia acetate, 0.1% MeOH in water (A): 5 mM ammonia acetate, 0.1% MeOH in acetonitrile (B) (70:30, v/v). The flow rate was 0.6 mL/min. Column was maintained at ambient temperature. 20 μL of the samples were injected.
(§4) The compounds disclosed herein are assessed in pharmacokinetic studies in mice, rats, dogs or monkeys. The compounds are administered as a water solution, 2% HPMC+1% TWEEN®80 in water solution, 5% DMSO+5% solutol in saline, 4% MC suspension or capsule. For the intravenous administration, the animals are generally given at 1 or 2 mg/kg dose. For the oral (p.o.) dosing, mice and rats are generally given 5 or 10 mg/kg dose, and dogs and monkeys are generally given 10 mg/kg dose. […] The plasma solutions are collected, stored at −20° C. or −70° C. until analyzed by LC/MS/MS as described above.

[3] = Pharmacokinetics after intravenous and oral administration in monkeys; assay type: in vivo; conditions: Monkey; iv dosing 1 mg/kg
Method: as §1, §2, §3, §4

[4] = Pharmacokinetics after intravenous and oral administration in mice; assay type: in vivo; conditions: Mouse; iv dosing 1 mg/kg
Method: as §1, §2
as §3, with “The mobile phase was 5 mM ammonia acetate, 0.1% MeOH in water (A): 5 mM ammonia acetate, 0.1% MeOH in acetonitrile (B) (70:30, v/v). The flow rate was 0.6 mL/min. Column was maintained at ambient temperature. 20 μL of the samples were injected.” left out
The compounds disclosed herein are assessed in pharmacokinetic studies in mice, rats, dogs or monkeys. […] The plasma solutions are collected, stored at −20° C. or −70° C. until analyzed by LC/MS/MS as described above.

[5] = Compound stability in human liver microsomes; assay type: in vitro ADME; conditions: for half-life at 5 μM: human liver microsomes 0.5 mg protein/mL, compound 5 μM, NADPH 1.0 mM, pH 7.4, 37° C., read-out: Human T1/2; for CLint scaled at 5 μM: liver microsomes, pH 7.4, in vivo CLint extrapolated from human liver microsome incubation
Method: (§5) Human or rat liver microsomes incubations were conducted in duplicate in polypropylene tubes. The typical incubation mixtures consisted of human or rat liver microsomes (0.5 mg protein/mL), compounds of interest (5 μM) and NADPH (1.0 mM) in a total volume of 200 μL potassium phosphate buffer (PBS, 100 mM, pH 7.4). Compounds were dissolved in DMSO and diluted with PBS such that the final concentration of DMSO was 0.05%. The enzymatic reactions were commenced with the addition of protein after a 3-min preincubation and incubated in a water bath open to the air at 37° C. Reactions were terminated at various time points (0, 5, 10, 15, 30, 60 min) by adding equal volume of ice-cold acetonitrile. The samples were stored at −80° C. until LC/MS/MS assays.
(§6) The concentrations of compounds in the incubation mixtures of human or rat liver microsomes were determined by a LC/MS/MS method. The ranges of the linearity in the concentration range were determined for each tested compounds.
(§7) A parallel incubation was performed using denatured microsomes as the negative control, and reactions were terminated at various time points (0, 15, 60 min) after incubation at 37° C.
(§8) Dextromethorphan (70 μM) was selected as the positive control, and reactions were terminated at various time points (0, 5, 10, 15, 30, 60 min) after incubation at 37° C. Both positive and negative control samples were included in each assay to ensure the integrity of the microsomal incubation system.
(§9) The concentrations of compounds in human or rat liver microsome incubations were plotted as a percentage of the relevant zero time point control for each reaction. The in vivo CLint were extrapolated (ref.: Naritomi, Y.; Terashita, S.; Kimura, S.; Suzuki, A.; Kagayama, A.; and Sugiyama, Y.; Prediction of human hepatic clearance from in vivo animal experiments and in vitro metabolic studies with liver microsomes from animals and humans. Drug Metab. Dispos., 2001, 29: 1316-1324).

[6] = Compound stability in rat liver microsomes; assay type: in vitro ADME; conditions: for CLint scaled at 5 μM: liver microsomes, pH 7.4, in vivo CLint extrapolated from rat liver microsome incubation; for half-life at 5 μM: rat liver microsomes 0.5 mg protein/mL, compound 5 μM, NADPH 1.0 mM, pH 7.4, 37° C., read-out: Rat T1/2
Method: as §5, §6, §7, §8, §9

PI3K (p110α/p85α) (h) = biological target: T1, PI3K (p110α/p85α) (h) (Homo sapiens, UniProt P42336); test: PI3K (p110α/p85α) (h) non-radioactive HTRF kinase assay; assay type: biochemical; conditions: Kinase inhibition data; performed at Millipore UK Ltd
T1 construct: purchased Millipore UK Ltd
Method: (§10) The above assay procedure can be used to determine the IC50 for inhibition and/or the inhibition constant, Ki.
PI3K (p110α/p85α) (h) [Non-Radioactive Assay]
(§11) PI3K (p110α/p85α) (h) is incubated in assay buffer containing 10 μM phosphatidylinositol 4,5-bisphosphate and MgATP (concentration as required). The reaction is initiated by the addition of the ATP solution. After incubation for 30 minutes at room temperature, the reaction is stopped by the addition of stop solution containing EDTA and biotinylated phosphatidylinositol-3,4,5-trisphosphate. Finally, detection buffer is added, which contains europium-labelled anti-GST monoclonal antibody, GST-tagged GRP1 PH domain and streptavidin allophycocyanin. The plate is then read in timeresolved fluorescence mode and the homogenous time-resolved fluorescence (HTRF) signal is determined according to the formula HTRF=10000×(Em665 nm/Em620 nm).
(§12) The kinase assays described herein were performed at Millipore UK Ltd, Dundee Technology Park, Dundee DD2 1SW, UK.

PI3K (h) p110β/p85α = biological target: T2, PI3K (h) p110β/p85α (Homo sapiens, UniProt P42338); test: PI3K (p110β/p85α) (h) non-radioactive HTRF kinase assay; assay type: biochemical; conditions: Kinase inhibition data; performed at Millipore UK Ltd
T2 construct: purchased Millipore UK Ltd

PI3K (p110δ/p85α) (h) = biological target: T3, PI3K (p110δ/p85α) (h) (Homo sapiens, UniProt O00329); test: PI3K (p110δ/p85α) (h) non-radioactive HTRF kinase assay; assay type: biochemical; conditions: Kinase inhibition data; performed at Millipore UK Ltd
T3 construct: purchased Millipore UK Ltd
Method: as §10
PI3K (p110δ/p85α) (h) [Non-Radioactive Assay]
as §11, with “(p110δ/p85α)” for “(p110α/p85α)”, “phosphatidylinositol-4, 5-bisphosphate” for “phosphatidylinositol 4,5-bisphosphate”, “MgATP mix.” for “ATP solution.”, “streptavidin-allophycocyanin.” for “streptavidin allophycocyanin.”
as §12

PI3K (p120γ) (h) = biological target: T4, PI3K (p120γ) (h) (Homo sapiens, UniProt P48736); test: PI3K (p120γ) (h) non-radioactive HTRF kinase assay; assay type: biochemical; conditions: Kinase inhibition data; performed at Millipore UK Ltd
T4 construct: purchased Millipore UK Ltd
Method: as §10
PI3K (p120γ) (h) [Non-Radioactive Assay]
as §11, with “(p120γ)” for “(p110α/p85α)”, “M phosphatidylinositol-4, 5-bisphosphate” for “μM phosphatidylinositol 4,5-bisphosphate”, “MgATP mix.” for “ATP solution.”, “streptavidin-allophycocyanin.” for “streptavidin allophycocyanin.”
as §12

T4 sequence (P48736 whole entry): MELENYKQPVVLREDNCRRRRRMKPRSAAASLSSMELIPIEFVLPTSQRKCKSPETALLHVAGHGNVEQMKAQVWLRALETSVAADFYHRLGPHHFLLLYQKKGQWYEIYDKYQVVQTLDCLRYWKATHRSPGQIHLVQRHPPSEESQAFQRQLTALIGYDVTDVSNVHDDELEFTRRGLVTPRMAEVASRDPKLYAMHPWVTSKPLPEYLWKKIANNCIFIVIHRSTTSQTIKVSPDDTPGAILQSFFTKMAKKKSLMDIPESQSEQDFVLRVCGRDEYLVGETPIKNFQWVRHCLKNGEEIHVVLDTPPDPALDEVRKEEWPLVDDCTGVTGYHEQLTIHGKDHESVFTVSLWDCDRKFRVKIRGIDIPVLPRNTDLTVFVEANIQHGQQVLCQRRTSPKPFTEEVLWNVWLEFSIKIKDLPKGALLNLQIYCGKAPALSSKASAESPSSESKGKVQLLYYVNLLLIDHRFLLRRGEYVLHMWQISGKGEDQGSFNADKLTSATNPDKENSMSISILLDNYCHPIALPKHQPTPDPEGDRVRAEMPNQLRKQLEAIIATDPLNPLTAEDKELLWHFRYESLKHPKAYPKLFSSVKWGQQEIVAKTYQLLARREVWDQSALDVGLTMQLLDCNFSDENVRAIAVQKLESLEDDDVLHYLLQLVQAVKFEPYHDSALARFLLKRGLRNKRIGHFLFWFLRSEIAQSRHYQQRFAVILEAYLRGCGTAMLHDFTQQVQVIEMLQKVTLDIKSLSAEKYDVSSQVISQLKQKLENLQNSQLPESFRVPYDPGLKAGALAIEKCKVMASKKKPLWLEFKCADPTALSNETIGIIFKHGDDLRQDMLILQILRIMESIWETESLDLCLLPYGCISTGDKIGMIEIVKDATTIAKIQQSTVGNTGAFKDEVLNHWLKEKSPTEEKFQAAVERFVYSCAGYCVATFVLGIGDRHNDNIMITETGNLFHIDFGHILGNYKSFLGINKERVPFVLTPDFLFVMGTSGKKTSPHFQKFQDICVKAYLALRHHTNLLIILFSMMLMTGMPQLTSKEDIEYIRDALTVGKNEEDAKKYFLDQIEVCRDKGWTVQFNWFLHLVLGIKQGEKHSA
T3 sequence (O00329 whole entry): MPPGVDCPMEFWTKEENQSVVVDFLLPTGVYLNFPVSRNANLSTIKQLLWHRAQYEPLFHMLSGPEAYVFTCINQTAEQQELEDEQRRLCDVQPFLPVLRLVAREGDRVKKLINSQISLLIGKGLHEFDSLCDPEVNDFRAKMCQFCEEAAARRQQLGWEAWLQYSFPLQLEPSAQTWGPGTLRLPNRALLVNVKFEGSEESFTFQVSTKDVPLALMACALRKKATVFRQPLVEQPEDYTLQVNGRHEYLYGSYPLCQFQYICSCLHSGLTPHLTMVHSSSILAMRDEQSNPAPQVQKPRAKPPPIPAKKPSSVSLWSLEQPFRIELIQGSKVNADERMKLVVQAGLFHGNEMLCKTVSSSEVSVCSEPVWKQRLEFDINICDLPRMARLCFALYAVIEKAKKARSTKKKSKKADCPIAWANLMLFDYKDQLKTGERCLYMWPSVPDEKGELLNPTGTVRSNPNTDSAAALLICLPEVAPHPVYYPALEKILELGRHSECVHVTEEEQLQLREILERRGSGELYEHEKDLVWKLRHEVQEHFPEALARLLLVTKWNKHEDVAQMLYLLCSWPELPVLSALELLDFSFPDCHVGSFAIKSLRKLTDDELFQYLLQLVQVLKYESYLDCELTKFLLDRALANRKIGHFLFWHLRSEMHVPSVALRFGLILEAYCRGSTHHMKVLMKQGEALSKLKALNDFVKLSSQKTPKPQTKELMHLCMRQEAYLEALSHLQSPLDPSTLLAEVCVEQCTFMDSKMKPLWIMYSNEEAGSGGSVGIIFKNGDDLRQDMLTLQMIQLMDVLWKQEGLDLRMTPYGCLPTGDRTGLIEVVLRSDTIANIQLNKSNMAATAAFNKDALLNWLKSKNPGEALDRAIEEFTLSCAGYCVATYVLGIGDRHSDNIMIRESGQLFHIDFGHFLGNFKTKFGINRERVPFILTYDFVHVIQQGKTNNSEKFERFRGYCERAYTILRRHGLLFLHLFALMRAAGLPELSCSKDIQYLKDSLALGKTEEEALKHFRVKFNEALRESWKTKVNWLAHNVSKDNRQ
T3 sequence (P27986 whole entry partner): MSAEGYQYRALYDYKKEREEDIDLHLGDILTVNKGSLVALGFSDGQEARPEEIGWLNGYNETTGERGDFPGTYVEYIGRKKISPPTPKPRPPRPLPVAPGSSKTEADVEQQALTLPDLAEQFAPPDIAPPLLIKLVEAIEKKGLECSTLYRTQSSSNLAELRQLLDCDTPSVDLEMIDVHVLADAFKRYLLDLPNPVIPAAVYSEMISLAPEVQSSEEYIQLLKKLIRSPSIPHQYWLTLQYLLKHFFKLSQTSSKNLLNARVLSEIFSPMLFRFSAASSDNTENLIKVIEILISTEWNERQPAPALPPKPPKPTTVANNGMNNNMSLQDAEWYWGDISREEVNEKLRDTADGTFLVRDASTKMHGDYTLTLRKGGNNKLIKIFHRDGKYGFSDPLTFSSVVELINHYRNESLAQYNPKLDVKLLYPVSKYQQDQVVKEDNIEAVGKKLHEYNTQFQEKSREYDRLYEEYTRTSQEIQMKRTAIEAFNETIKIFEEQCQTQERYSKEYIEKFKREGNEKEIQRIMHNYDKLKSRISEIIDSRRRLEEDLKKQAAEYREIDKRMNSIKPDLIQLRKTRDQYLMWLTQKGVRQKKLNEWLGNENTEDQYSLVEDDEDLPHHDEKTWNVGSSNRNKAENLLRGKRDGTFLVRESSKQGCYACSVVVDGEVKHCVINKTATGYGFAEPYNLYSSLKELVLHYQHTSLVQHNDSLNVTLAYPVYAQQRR
T2 sequence (P42338 whole entry): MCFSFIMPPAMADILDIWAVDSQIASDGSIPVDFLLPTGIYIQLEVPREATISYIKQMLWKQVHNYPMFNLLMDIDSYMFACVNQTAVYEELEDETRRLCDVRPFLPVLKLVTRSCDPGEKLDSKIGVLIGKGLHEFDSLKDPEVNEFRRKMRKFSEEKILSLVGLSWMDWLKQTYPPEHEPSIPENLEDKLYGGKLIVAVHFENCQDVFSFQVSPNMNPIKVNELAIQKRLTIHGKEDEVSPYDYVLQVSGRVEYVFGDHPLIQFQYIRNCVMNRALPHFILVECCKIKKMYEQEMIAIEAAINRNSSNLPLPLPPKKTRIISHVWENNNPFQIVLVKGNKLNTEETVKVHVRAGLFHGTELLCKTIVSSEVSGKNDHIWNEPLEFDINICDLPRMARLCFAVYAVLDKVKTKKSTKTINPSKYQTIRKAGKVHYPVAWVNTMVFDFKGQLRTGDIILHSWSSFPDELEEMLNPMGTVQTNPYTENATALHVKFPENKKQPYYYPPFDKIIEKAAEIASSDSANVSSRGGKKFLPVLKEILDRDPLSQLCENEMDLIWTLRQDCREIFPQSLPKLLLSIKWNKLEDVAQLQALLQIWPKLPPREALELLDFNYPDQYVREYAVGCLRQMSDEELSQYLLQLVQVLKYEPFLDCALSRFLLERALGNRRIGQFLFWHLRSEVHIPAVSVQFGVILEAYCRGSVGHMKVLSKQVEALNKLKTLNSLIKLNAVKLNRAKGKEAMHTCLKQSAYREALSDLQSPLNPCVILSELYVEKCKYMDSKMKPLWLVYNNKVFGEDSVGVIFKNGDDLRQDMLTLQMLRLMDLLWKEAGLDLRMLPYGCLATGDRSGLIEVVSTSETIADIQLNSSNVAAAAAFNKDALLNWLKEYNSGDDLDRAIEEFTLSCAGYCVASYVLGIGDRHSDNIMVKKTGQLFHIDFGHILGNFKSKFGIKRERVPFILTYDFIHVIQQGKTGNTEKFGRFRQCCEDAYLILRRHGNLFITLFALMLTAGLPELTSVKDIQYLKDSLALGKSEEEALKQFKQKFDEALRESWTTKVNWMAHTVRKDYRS
T2 sequence (P27986 whole entry partner): as the sequence (P27986 whole entry partner) above
T1 sequence (P42336 whole entry): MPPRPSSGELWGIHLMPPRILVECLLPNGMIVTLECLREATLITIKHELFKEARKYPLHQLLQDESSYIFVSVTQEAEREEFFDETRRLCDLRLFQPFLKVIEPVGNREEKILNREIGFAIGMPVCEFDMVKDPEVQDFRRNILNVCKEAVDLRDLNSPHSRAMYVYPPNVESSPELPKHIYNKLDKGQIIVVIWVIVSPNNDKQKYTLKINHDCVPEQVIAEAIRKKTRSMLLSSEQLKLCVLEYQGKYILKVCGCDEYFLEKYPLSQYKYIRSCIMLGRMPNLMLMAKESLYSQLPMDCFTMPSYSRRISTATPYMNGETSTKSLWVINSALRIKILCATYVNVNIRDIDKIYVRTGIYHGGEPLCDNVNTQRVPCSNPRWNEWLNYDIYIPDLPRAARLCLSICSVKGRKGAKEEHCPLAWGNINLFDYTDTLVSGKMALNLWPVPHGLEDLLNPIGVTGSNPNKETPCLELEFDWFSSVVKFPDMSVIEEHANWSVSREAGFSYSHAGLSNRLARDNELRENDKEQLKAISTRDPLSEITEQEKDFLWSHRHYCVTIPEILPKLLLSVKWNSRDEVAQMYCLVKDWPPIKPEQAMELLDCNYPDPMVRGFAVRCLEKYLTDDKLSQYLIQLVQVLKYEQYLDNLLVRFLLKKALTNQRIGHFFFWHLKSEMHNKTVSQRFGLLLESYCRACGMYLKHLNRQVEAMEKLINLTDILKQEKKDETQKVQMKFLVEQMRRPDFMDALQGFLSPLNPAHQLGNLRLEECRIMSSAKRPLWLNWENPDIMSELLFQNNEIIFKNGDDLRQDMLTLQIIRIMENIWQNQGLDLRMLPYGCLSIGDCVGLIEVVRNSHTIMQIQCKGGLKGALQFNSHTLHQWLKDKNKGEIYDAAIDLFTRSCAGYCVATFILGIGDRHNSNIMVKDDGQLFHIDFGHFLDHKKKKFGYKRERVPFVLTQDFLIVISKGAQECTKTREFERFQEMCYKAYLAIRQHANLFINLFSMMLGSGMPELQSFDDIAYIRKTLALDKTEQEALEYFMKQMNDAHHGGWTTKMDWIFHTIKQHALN
T1 sequence (P27986 whole entry partner): as the sequence (P27986 whole entry partner) above

Compound | CL/F [1] [L/h/kg] | CL/F [2] [L/h/kg] | CL/F [3] [L/h/kg] | CL/F [4] [L/h/kg] | half-life at 5 μM [5] [h] | CLint scaled at 5 μM [5] [L/h/kg] | CLint scaled at 5 μM [6] [L/h/kg] | half-life at 5 μM [6] [h] | AUC(0-t) [1] [µg·h/mL] | half-life [1] [h] | Vd [1] [L/kg] | bioavailability [1] [%] | IC50 (PI3K (p110α/p85α) (h)) [µM] | IC50 (PI3K (h) p110β/p85α) [µM] | IC50 (PI3K (p110δ/p85α) (h)) [µM] | IC50 (PI3K (p120γ) (h)) [µM]
CC[C@H](Nc1ncnc(N)c1-c1nc(C)no1)c1nc2cccc(Cl)c2c(=O)n1C1CC1 [Ex. 4, (S)-2-(1-((6-amino-5-(3-methyl-1,2,4-oxadiazol-5-yl)pyrimidin-4-yl)amino)-propyl)-5-chloro-3-cyclopropylquinazolin-4(3H)-one] | 1.29 | 0.58 | 0.696 |  |  |  |  |  |  |  |  |  |  |  |  | 
Cc1nnc(-c2c(N)ncnc2N[C@@H](C)c2nc3cccc(Cl)c3c(=O)n2-c2ccccc2)o1 [Ex. 64, (S)-2-(1-((6-amino-5-(5-methyl-1,3,4-oxadiazol-2-yl)pyrimidin-4-yl)amino)ethyl)-5-chloro-3-phenylquinazolin-4(3H)-one] | 1.70 | 0.11 | 0.43 | 1.13 |  |  |  |  |  |  |  |  |  |  |  | 
Cc1noc(-c2c(N)ncnc2N[C@@H](C)c2nc3cccc(Cl)c3c(=O)n2-c2ccccc2)n1 [Ex. 65, (S)-2-(1-((6-amino-5-(3-methyl-1,2,4-oxadiazol-5-yl)pyrimidin-4-yl)amino)ethyl)-5-chloro-3-phenylquinazolin-4(3H)-one] |  | 0.37 | 0.92 | 1.90 |  |  |  |  |  |  |  |  |  |  |  | 
Cc1noc(-c2c(N)ncnc2N[C@@H](C)c2nc3cccc(-c4cnn(C)c4)c3c(=O)n2C2CC2)n1 [Ex. 66, (S)-2-(1-((6-amino-5-(3-methyl-1,2,4-oxadiazol-5-yl)pyrimidin-4-yl)amino)ethyl)-3-cyclopropyl-5-(1-methyl-1H-pyrazol-4-yl)quinazolin-4(3H)-one] | 2.36 |  |  |  | 1.11 | 1.57 | 0.911 | 2.73 | 0.423 | 0.98 | 2.98 | 96.2 | 2.19 | 1.8 | 0.016 | 0.878
Cc1noc(-c2c(N)ncnc2N[C@@H](C)c2nc3cccc(-c4cnn(C)c4)c3c(=O)n2-c2ccccc2)n1 [Ex. 68, (S)-2-(1-((6-amino-5-(3-methyl-1,2,4-oxadiazol-5-yl)pyrimidin-4-yl)amino)ethyl)-5-(1-methyl-1H-pyrazol-4-yl)-3-phenylquinazolin-4(3H)-one] | 0.35 |  |  |  | 1.22 | 1.43 | 1.05 | 2.36 | 2.69 | 1.8 | 0.89 | 70 | 1.42 | 1.18 | 0.004 | 0.092
Cc1nnc(-c2c(N)ncnc2N[C@@H](C)c2nc3cccc(-c4cnn(C)c4)c3c(=O)n2-c2ccccc2)o1 [Ex. 69, (S)-2-(1-((6-amino-5-(5-methyl-1,3,4-oxadiazol-2-yl)pyrimidin-4-yl)amino)ethyl)-5-(1-methyl-1H-pyrazol-4-yl)-3-phenylquinazolin-4(3H)-one] | 0.90 |  |  |  | 2.31 | 0.753 | 0.599 | 4.14 | 1.1 | 1.25 | 1.54 | 83 | > 3 | > 3 | 0.022 | 1.17
CC[C@H](Nc1ncnc(N)c1-c1nnc(C)o1)c1nc2cccc(-c3cnn(C)c3)c2c(=O)n1C1CC1 [Ex. 72, (S)-2-(1-((6-amino-5-(5-methyl-1,3,4-oxadiazol-2-yl)pyrimidin-4-yl)amino)propyl)-3-cyclopropyl-5-(1-methyl-1H-pyrazol-4-yl)quinazolin-4(3H)-one] | 3.95 |  |  |  |  |  |  |  | 0.27 | 0.98 | 3.85 | 35.9 | > 3 | > 3 | 0.142 | > 3
